# System: Agaricus bisporus mycelia
# Assay: Laccase activity of mycelia grown in potato dextrose yeast broth at 25° C.
# Format: cell-based, Agaricus bisporus (hybrid off-white)
# Description: The commercial mushroom spawn (hybrid off-white), Agaricus bisporus (Lange) Imbach, was obtained from Alpha Spawn Co., Avondale, Pa., and inoculated onto potato dextrose yeast (PDY) agar (Difco) and incubated at 25° C. A pure culture was obtained from the grain spawn grown on petri dishes and re-inoculated into PDY agar and maintained at 25° C. before use.
# The mushroom culture was grown on PDY agar or in PDY broth, both containing 0.5% yeast extract. The broth was dispensed into flasks prior to autoclaving, 50 mL. per flask, while 5 mL of sterile ODA solutions were aseptically added into flasks before inoculation.
# To prepare ODA solutions, about 18.4 mg (0.1 mmole) of 10-oxo-trans-8-decenoic acid prepared as described above were dissolved in i mL ethanol and diluted with deionized water to 100 mL to give a molar concentration of 10^-3 M, and then diluted in order to add 1.0 mL of the solutions to each flask to give the required final concentrations.
# Sterile ODA solutions were aseptically added into the autoclaved agar medium to achieve the desired final ODA concentrations, and then the medium was dispensed into petri dishes, ca 30 ml per dish. The levels of ODA tested included 2×10^-4, 10^-4, 10^-5, 10^-6 and 10^-7 M for both PDY agar and broth. These flasks and dishes were inoculated with 1 mm mycelial plugs from 4-week old cultures and incubated statically at 25° C. for 5 weeks. Each week, ca 300 μL of broth was aseptically taken from the flasks for laccase assay, while the colony diameter of every petri dish was measured using a vernier caliper to calculate the linear growth of the culture.
# The activity of laccase was assayed as described in Leonowicz et al., (1981). The reaction mixture consisted of 1.0 ml of 0.04M MES (2-[N-morpholino] ethanesulfonic acid, Sigma)-NaOH buffer, pH 5.3, 200 μL of 0.5 mM syringaldazine ([…], Sigma) in EtOH, and 100 μL of culture broth withdrawn from the flasks making up a final volume of 1.3 mL. The control mixture contained no culture broth. The change in absorbance was monitored for 5 mins at 525 nm. Laccase activity was expressed in units of kat, the conversion of 1 mole of syringaldazine per sec.
# Methods for the estimation of total fungal growth include the measurement of dry matter, linear growth, carbon dioxide evolution, chitin, ATP as well as extracellular laccase activity (Cochrane, (1958); Wood, (1979)). In this research the linear growth rate was used to examine the growth of mushroom mycelia on agar plates, while the extracellular laccase activity and dry matter were determined to estimate the growth of mycelia in liquid cultures. Extracellular laccases (p-diphenol: oxygen oxidoreductase, EC 1.10.3.2) produced by various classes of fungi are reported to be involved in biotransformation of lignin and lignosulfonate (Anders et al., (1976)), as well as in the breakdown of cellulose by cellulase (Westermark et al., (1974a); Westermark et al., (1974b); Haars et al., (1980)). Although the role of laccase in growth and development of Agaricus bisporus is not well defined, it has been observed that laccase production correlated with mycelial biomass of this fungus (Wood, (1979); Matcham et al., (1985); Claydon et al., (1988)).
smiles,measurement,setting,value
"O=C/C=C/CCCCCCC(=O)O [ODA, 10-oxo-trans-8-decenoic acid]",mycelial growth by laccase activity and dry matter (in words),"10^-6 and 10^-5 M (0.184 and 1.84 ppm), liquid culture",stimulated
same,LOG [Laccase activity (mkat/ml)],"ODA 2 × 10^-4 M (36.8 ppm), Week 1, control 0.49",0.25 LOG (mkat/ml)
same,LOG [Laccase activity (mkat/ml)],"ODA 2 × 10^-4 M (36.8 ppm), Week 2, control 1.19",1.84 LOG (mkat/ml)
same,LOG [Laccase activity (mkat/ml)],"ODA 2 × 10^-4 M (36.8 ppm), Week 3, control 1.97",2.07 LOG (mkat/ml)
same,LOG [Laccase activity (mkat/ml)],"ODA 2 × 10^-4 M (36.8 ppm), Week 4, control 2.37",2.15 LOG (mkat/ml)
same,LOG [Laccase activity (mkat/ml)],"ODA 2 × 10^-4 M (36.8 ppm), Week 5, control 2.74",2.38 LOG (mkat/ml)
same,LOG [Laccase activity (mkat/ml)],"ODA 10^-4 M (18.4 ppm), Week 1, control 0.49",1.04 LOG (mkat/ml)
same,LOG [Laccase activity (mkat/ml)],"ODA 10^-4 M (18.4 ppm), Week 2, control 1.19",2.13 LOG (mkat/ml)
same,LOG [Laccase activity (mkat/ml)],"ODA 10^-4 M (18.4 ppm), Week 3, control 1.97",2.29 LOG (mkat/ml)
same,LOG [Laccase activity (mkat/ml)],"ODA 10^-4 M (18.4 ppm), Week 4, control 2.37",2.38 LOG (mkat/ml)
same,LOG [Laccase activity (mkat/ml)],"ODA 10^-4 M (18.4 ppm), Week 5, control 2.74",2.64 LOG (mkat/ml)
same,LOG [Laccase activity (mkat/ml)],"ODA 10^-5 M (1.84 ppm), Week 1, control 0.49",1.63 LOG (mkat/ml)
same,LOG [Laccase activity (mkat/ml)],"ODA 10^-5 M (1.84 ppm), Week 2, control 1.19",2.62 LOG (mkat/ml)
same,LOG [Laccase activity (mkat/ml)],"ODA 10^-5 M (1.84 ppm), Week 3, control 1.97",2.90 LOG (mkat/ml)
same,LOG [Laccase activity (mkat/ml)],"ODA 10^-5 M (1.84 ppm), Week 4, control 2.37",3.20 LOG (mkat/ml)
same,LOG [Laccase activity (mkat/ml)],"ODA 10^-5 M (1.84 ppm), Week 5, control 2.74",3.53 LOG (mkat/ml)
same,LOG [Laccase activity (mkat/ml)],"ODA 10^-6 M (0.184 ppm), Week 1, control 0.49",1.16 LOG (mkat/ml)
same,LOG [Laccase activity (mkat/ml)],"ODA 10^-6 M (0.184 ppm), Week 2, control 1.19",2.34 LOG (mkat/ml)
same,LOG [Laccase activity (mkat/ml)],"ODA 10^-6 M (0.184 ppm), Week 3, control 1.97",2.76 LOG (mkat/ml)
same,LOG [Laccase activity (mkat/ml)],"ODA 10^-6 M (0.184 ppm), Week 4, control 2.37",3.07 LOG (mkat/ml)
same,LOG [Laccase activity (mkat/ml)],"ODA 10^-6 M (0.184 ppm), Week 5, control 2.74",3.43 LOG (mkat/ml)
same,LOG [Laccase activity (mkat/ml)],"ODA 10^-7 M (0.0184 ppm), Week 1, control 0.49",0.73 LOG (mkat/ml)
same,LOG [Laccase activity (mkat/ml)],"ODA 10^-7 M (0.0184 ppm), Week 2, control 1.19",2.15 LOG (mkat/ml)
same,LOG [Laccase activity (mkat/ml)],"ODA 10^-7 M (0.0184 ppm), Week 3, control 1.97",2.57 LOG (mkat/ml)
same,LOG [Laccase activity (mkat/ml)],"ODA 10^-7 M (0.0184 ppm), Week 4, control 2.37",2.86 LOG (mkat/ml)
same,LOG [Laccase activity (mkat/ml)],"ODA 10^-7 M (0.0184 ppm), Week 5, control 2.74",3.08 LOG (mkat/ml)

# — patent US5681738A, “Use of 10-oxo-trans-8-decenoic acid in mushroom cultivation” (The Penn State Research Foundation, priority 1992, dated 1997)
